{
  "source": "patent US8957062B2",
  "about": "“Substituted cyclopropyl compounds, compositions containing such compounds and methods of treatment” (Merck Sharp & Dohme Corp., priority 2011, dated 2015)",
  "key": {"[1]": {"target": "T1, human GPR119 (Homo sapiens, UniProt Q8TDV5)", "T1 sequence (Q8TDV5 1-308 limits assumed)": "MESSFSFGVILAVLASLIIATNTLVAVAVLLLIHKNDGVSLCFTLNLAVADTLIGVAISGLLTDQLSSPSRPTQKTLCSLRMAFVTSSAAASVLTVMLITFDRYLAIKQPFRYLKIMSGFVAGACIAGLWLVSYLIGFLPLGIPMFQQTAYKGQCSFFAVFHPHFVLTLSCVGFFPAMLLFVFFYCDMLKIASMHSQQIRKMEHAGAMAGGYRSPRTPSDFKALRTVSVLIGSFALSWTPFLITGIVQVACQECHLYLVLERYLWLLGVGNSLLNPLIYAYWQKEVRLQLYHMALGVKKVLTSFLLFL", "assay": "Measurement of GPR119 signaling (cAMP assay) in cells stably transfected with human GPR119", "format": "cell-based"}, "[2]": {"settings": "table column, cAMP stimulation, human GPR119, read-out: GPR119 Human EC50"}},
  "note": "Like-named read-outs stand apart in the source and are kept apart here.",
  "data": [
    {"smiles": "COCc1noc(N2CCC([C@H]3C[C@H]3CCOc3ccc(S(C)(=O)=O)cn3)CC2)n1", "note": "[Example 208, 3-(methoxymethyl)-5-(4-((1R,2S)-2-(2-(5-(methylsulfonyl)pyridin-2-yloxy)ethyl)cyclopropyl)piperidin-1-yl)-1,2,4-oxadiazole]", "values": [
      {"measurement": "EC50", "setting": "[1]; stated in the example text, cAMP stimulation, human GPR119, read-out: GPR119 Human EC50", "result": 7, "unit": "nM"},
      {"measurement": "melting point", "result": "68 to 70", "unit": "°C"}
    ]},
    {"smiles": "CC(C)c1noc(N2CCC([C@H]3C[C@H]3CCOc3ccc(CC(=O)N4CCC4)cc3F)CC2)n1", "note": "[Example 101, 4-((1R,2S)-2-{2-[4-(2-azetidin-1-yl-2-oxoethyl)-2-fluorophenoxy]ethyl}cyclopropyl)-1-(3-isopropyl-1,2,4-oxadiazol-5-yl)piperidine]", "values": [
      {"measurement": "EC50", "setting": "[1]; stated in the example text without 'GPR119', read-out: Human EC50", "result": 5.3, "unit": "nM"}
    ]},
    {"smiles": "CC(C)c1noc(N2CCC([C@H]3C[C@H]3CCOc3ccc(CC(=O)N4CC(C)(O)C4)c(F)c3)CC2)n1", "note": "[Example 140]", "values": [
      {"measurement": "EC50", "setting": "[1]; [2]", "result": 3.6, "unit": "nM"}
    ]},
    {"smiles": "CS(=O)(=O)c1ccc(OCC[C@@H]2C[C@@H]2C2CCN(c3nc(COCC(F)(F)F)no3)CC2)nc1", "note": "[Example 217]", "values": [
      {"measurement": "EC50", "setting": "[1]; [2]", "result": 7.8, "unit": "nM"}
    ]},
    {"smiles": "CC1(O)CN(C(=O)Cc2ccc(OCC[C@@H]3C[C@@H]3C3CCN(C(=O)OC4(C)CC4)CC3)cc2F)C1", "note": "[Example 64]", "values": [
      {"measurement": "EC50", "setting": "[1]; cAMP stimulation, read-out: GPR119 HumC EC50", "result": 9.5, "unit": "nM"}
    ]}
  ]
}
